Measurements from patent US20230286973A1, “PROTEIN SECRETION INHIBITORS” (KEZAR LIFE SCIENCES, priority 2020, published 2023).
Read-outs that look alike come from different tables or passages of the source.

What was measured:
[1] = test system: TNFα-FL/Gaussia Luciferase; test: Dox Induced TNFα-FL-Gluc Assay; assay type: cell-based; conditions: for IC50: 24 hr Dox induction, 293FRT/TO cells, read-out: 24 hr Dox Inducible TNFaFLGluc 293FRT/TO: Mean IC50; for 24 hr Dox Inducible TNFaFLGluc 293FRT/TO: TNF/PD1: ratio of TNFaFLGluc IC50 to PD1ssGluc IC50
How it was run: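 Flp-In 293 T-REx cells stably expressing full-length TNFα (aa 1-233) fused at its C-terminus to Gaussia luciferase under tetracycline-regulated control were plated the day before assay. Compound dilutions in DMSO/media containing doxycycline were added and incubated at 37 °C, 5% CO2. Unspecified stereochemistry denotes stereoisomer mixtures.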

[2] = Liver Microsome Stability Assay (mouse); conditions: mouse liver microsomes, with NADPH, 1.0 uM compound
Protocol: (§1) Stability of a compound was assessed in the presence of liver microsomes from various sources—mouse, rat, monkey and human liver microsomes. 1.0 uM compound, 0.4% DMSO in 0.1 M Potassium Phosphate with 1.0 mg/mL liver microsomes, were incubated at 37° C. with or without 1 mM NADPH. The samples were quenched at 0, and 30 minutes.

[3] = Liver Microsome Stability Assay (monkey); conditions: monkey liver microsomes, with NADPH, 1.0 uM compound
Protocol: as §1

[4] = Liver Microsome Stability Assay (human); conditions: human liver microsomes, with NADPH, 1.0 uM compound
Protocol: as §1

[5] = test system: HER3-ss+4aa/Gaussia Luciferase; test: Dox-Induced Her3-ss-Gluc Assay; assay type: cell-based; conditions: 24 hr Dox induction, 293FRT/TO cells, read-out: 24 hr Dox Inducible Her3(ss + 4)Gluc 293FRT/TO: Mean IC50
How it was run: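 Stable Flp-In 293 T-REx line expressing Gaussia luciferase fused to the HER3 signal sequence plus 4 amino acids under tetracycline-regulated (T-REx) control. Cells plated the day before, then treated with compound dilutions in DMSO/media containing doxycycline and incubated at 37° C., 5% CO2.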

[6] = test system: PD1-ss+10aa/Gaussia Luciferase; test: Dox-Induced PD1-ss-Gluc Assay; assay type: cell-based; conditions: 24 hr Dox induction, 293FRT/TO cells, read-out: 24 hr Dox Inducible PD1ssGluc 293FRT/TO: Mean IC50
How it was run: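 Flp-In 293 T-REx, stable line; Tet-regulated PD1-ss+10aa fused to Gaussia luciferase; plated day prior; cpd + doxycycline in DMSO/media; 37 °C, 5% CO2.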

[7] = test system: multiple myeloma cell line U266B1; test: U266 Cell Viability Assay; assay type: cell-based, human; conditions: Homo sapiens, U-266, 48 h, U266B1 cells, Celltiter-Glo
How it was run: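 Cells grown in RPMI 1640 with 10% FBS, 2 mM glutamine and penicillin/streptomycin were exposed to compound dilutions in DMSO/media for 48 hours at 37° C., 5% CO2. Viability was read by CellTiter-Glo luminescence. Undefined stereocentres mean data for stereoisomer mixtures.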

[8] = test system: IL-2-FL/Gaussia Luciferase; test: Dox Induced IL2-FL-Gluc Assay; assay type: cell-based; conditions: for IC50: 24 hr Dox induction, 293FRT/TO cells, read-out: 24 hr Dox Inducible IL2FLGluc 293FRT/TO: Mean IC50; for 24 hr Dox Inducible IL2FLGluc 293FRT/TO: IL2/PD1: ratio of IL2FLGluc IC50 to PD1ssGluc IC50
How it was run: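 Flp-In 293 T-REx cells stably carrying doxycycline-inducible full-length IL-2 (aa 1-153) fused at its C-terminus to Gaussia luciferase, selected with hygromycin and blasticidin. Cells were plated the day before, then treated with compounds in DMSO/media containing doxycycline at 37° C, 5% CO2.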

[9] = Liver Microsome Stability Assay (rat); conditions: rat liver microsomes, with NADPH, 1.0 uM compound
Protocol: as §1

[10] = test system: multiple myeloma cell line NCI-H929; test: H929 Cell Viability Assay; assay type: cell-based, human; conditions: Homo sapiens, NCI-H929, 48 h, NCI-H929 cells, Celltiter-Glo
How it was run: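 NCI-H929 cells, resuspended in RPMI 1640 with 10% FBS and 2 mM glutamine, were treated with compound dilutions in DMSO/media and incubated 48 hours at 37° C, 5% CO2. Viability was read by CellTiter-Glo luminescence. Compounds drawn without stereochemistry were tested as stereoisomer mixtures.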

[11] = '<=>' given where both are I.A.

Compound	IC50 ([1]; mean) [nM]	Liver Microsome Stability (Multiple Species): Mouse - % Remaining after 30 min w/NADPH [2] [%]	Liver Microsome Stability (Multiple Species): Monkey - % Remaining after 30 min w/NADPH [3] [%]	Liver Microsome Stability (Multiple Species): Human - % Remaining after 30 min w/NADPH [4] [%]	IC50 ([5]; mean) [nM]	IC50 ([6]; mean) [nM]	EC50 [7] [µM]	IC50 ([8]; mean) [nM]	Liver Microsome Stability (Multiple Species): Rat - % Remaining after 30 min w/NADPH [9] [%]	EC50 [10] [nM]	IC50 [1] [nM]	IC50 [5] [nM]	IC50 [6] [nM]	IC50 [8] [nM]	24 hr Dox Inducible TNFaFLGluc 293FRT/TO: TNF/PD1 [1, 11]	24 hr Dox Inducible IL2FLGluc 293FRT/TO: IL2/PD1 [8, 11]	24 hr Dox Inducible TNFaFLGluc 293FRT/TO: TNF/PD1 [1]	24 hr Dox Inducible IL2FLGluc 293FRT/TO: IL2/PD1 [8]
O=C(Nc1nc([C@H]2CCCN2c2ccccc2)cs1)c1cccn1CCc1cccnc1 [Compound E21, (R)-N-(4-(1-phenylpyrrolidin-2-yl)thiazol-2-yl)-1-(2-(pyridin-3-yl)ethyl)-1H-pyrrole-2-carboxamide]	> 25000	0.02	0.23	0.8	> 25000	6480	23.7	> 25000	0.1	15600					>3.86	>3.9		
CC(C)n1cc(/C=C/c2csc(NC(=O)c3cccn3Cc3ccnc(F)c3)n2)nc1CO [Compound B103, (E)-1-((2-fluoropyridin-4-yl)methyl)-N-(4-(2-(2-(hydroxymethyl)-1-isopropyl-1H-imidazol-4-yl)vinyl)thiazol-2-yl)-1H-pyrrole-2-carboxamide]		28.7	1.64	1.87			> 25		19.5	> 25000	> 25000	> 25000	10100	> 25000			>2.49	>2.5
CC(=O)N1CCC(C)(Oc2ccc(N3CCC[C@@H]3c3csc(NC(=O)c4cccn4Cc4ccnc(F)c4)n3)cc2)CC1 [Compound A97, (R)-N-(4-(1-(4-((1-acetyl-4-methylpiperidin-4-yl)oxy)phenyl)pyrrolidin-2-yl)thiazol-2-yl)-1-((2-fluoropyridin-4-yl)methyl)-1H-pyrrole-2-carboxamide]		0.22	0.4	6.01			> 25		42.4	448	162	22.1	18.8	32.8			8.64	1.7
O=C(Nc1nc([C@H]2CCCN2c2ccccc2)cs1)c1cccn1-c1csc2cnccc12 [Compound C115, (R)-N-(4-(1-phenylpyrrolidin-2-yl)thiazol-2-yl)-1-(thieno[2,3-c]pyridin-3-yl)-1H-pyrrole-2-carboxamide]	3530	1.07	0.66	1.3	552	287	> 25	613	2.2	> 22800					12.3	2.1		
CC(=O)N1CCOC(/C=C/c2csc(NC(=O)c3cccn3Cc3ccncc3)n2)C1 (stereo not drawn) [Compound B10, (E)-N-(4-(2-(4-acetylmorpholin-2-yl)vinyl)thiazol-2-yl)-1-(pyridin-4-ylmethyl)-1H-pyrrole-2-carboxamide]		9.22	0.1	1.05			> 25		2.71	> 25000	> 25000	> 25000	20000	> 25000			>1.25	1.3
CC(=O)N1CCC(Oc2ccc(N3CCC[C@@H]3c3csc(NC(=O)c4cccn4Cc4ccnc(F)c4)n3)cc2C#N)CC1 [Compound A126, (R)-N-(4-(1-(4-((1-acetylpiperidin-4-yl)oxy)-3-cyanophenyl)pyrrolidin-2-yl)thiazol-2-yl)-1-((2-fluoropyridin-4-yl)methyl)-1H-pyrrole-2-carboxamide]		17.7	0.92	1.21			> 25		0.78	1130	414	5.03	59.5	72.5			6.97	1.2

Now those with a lower EC50 [7], led by results:

IC50 ([1]; mean) [nM]	Liver Microsome Stability (Multiple Species): Mouse - % Remaining after 30 min w/NADPH [2] [%]	Liver Microsome Stability (Multiple Species): Monkey - % Remaining after 30 min w/NADPH [3] [%]	Liver Microsome Stability (Multiple Species): Human - % Remaining after 30 min w/NADPH [4] [%]	IC50 ([5]; mean) [nM]	IC50 ([6]; mean) [nM]	EC50 [7] [µM]	IC50 ([8]; mean) [nM]	Liver Microsome Stability (Multiple Species): Rat - % Remaining after 30 min w/NADPH [9] [%]	EC50 [10] [nM]	IC50 [1] [nM]	IC50 [5] [nM]	IC50 [6] [nM]	IC50 [8] [nM]	Compound	24 hr Dox Inducible TNFaFLGluc 293FRT/TO: TNF/PD1 [1, 11]	24 hr Dox Inducible IL2FLGluc 293FRT/TO: IL2/PD1 [8, 11]	24 hr Dox Inducible TNFaFLGluc 293FRT/TO: TNF/PD1 [1]	24 hr Dox Inducible IL2FLGluc 293FRT/TO: IL2/PD1 [8]
104	0.28	0.11	0.44	3.5	5.05	19.6	15.5	1.89	127					CCc1ccc(N2CCC[C@@H]2c2csc(NC(=O)c3cccn3Cc3ccncc3)n2)cn1 [Compound C95, (R)-N-(4-(1-(6-ethylpyridin-3-yl)pyrrolidin-2-yl)thiazol-2-yl)-1-(pyridin-4-ylmethyl)-1H-pyrrole-2-carboxamide]	20.5	3.1		
	3.14	11.3	3.14			2.94		11	2000	13400	588	293	806	CN1CCC(Oc2ccc(N3CCC[C@@H]3c3csc(NC(=O)c4cccn4Cc4ccncc4)n3)cc2)CC1 [Compound A8, (R)-N-(4-(1-(4-((1-methylpiperidin-4-yl)oxy)phenyl)pyrrolidin-2-yl)thiazol-2-yl)-1-(pyridin-4-ylmethyl)-1H-pyrrole-2-carboxamide]			45.5	2.7
	0.26	0.17	0.34			2.14		0.15	119	127	8.37	5.06	10.6	CN(C)c1ccc(N2CCC[C@@H]2c2csc(NC(=O)c3cccn3Cc3ccncc3)n2)cc1 [Compound A16, (R)-N-(4-(1-(4-(dimethylamino)phenyl)pyrrolidin-2-yl)thiazol-2-yl)-1-(pyridin-4-ylmethyl)-1H-pyrrole-2-carboxamide]			25	2.1
